Measurements reported in patent US20250215030A1, “STAT MODULATORS AND USES THEREOF” (Recludix Pharma, Inc., priority 2022, published 2025).

Assays:
[1] = target: T1, Recombinant STAT3 protein (STAT3(G127-I722)) (Homo sapiens, UniProt P40763); assay: STAT3 Fluorescence Polarization (FP) Assay; type: binding; conditions: STAT3(G127-I722) 25 nM, probe 5-FAM-GpYLPQTV-NH2 2 nM, 45-minute incubation
T1 construct: STAT3(G127-I722)
Method in brief: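 Serially diluted compounds (1% DMSO) were mixed with 2 nM fluorescent phosphotyrosine peptide and 25 nM STAT3 construct G127-I722, pH 7.4, incubated 45 min at room temperature. IC50 values from fitted polarization curves are reported as categories A (≤100 nM), B, C, D (>10 μM).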

[2] = target: T2, Recombinant STAT6 protein (STAT6(W123-T658)) (Homo sapiens, UniProt P42226); assay: STAT6 Fluorescence Polarization (FP) Assay; type: binding; conditions: STAT6(W123-T658) 250 nM, probe 5-FAM-ApYKPFQDLI-NH2 2 nM, 45-minute incubation
T2 construct: STAT6(W123-T658)
T2 sequence (P42226 123-658): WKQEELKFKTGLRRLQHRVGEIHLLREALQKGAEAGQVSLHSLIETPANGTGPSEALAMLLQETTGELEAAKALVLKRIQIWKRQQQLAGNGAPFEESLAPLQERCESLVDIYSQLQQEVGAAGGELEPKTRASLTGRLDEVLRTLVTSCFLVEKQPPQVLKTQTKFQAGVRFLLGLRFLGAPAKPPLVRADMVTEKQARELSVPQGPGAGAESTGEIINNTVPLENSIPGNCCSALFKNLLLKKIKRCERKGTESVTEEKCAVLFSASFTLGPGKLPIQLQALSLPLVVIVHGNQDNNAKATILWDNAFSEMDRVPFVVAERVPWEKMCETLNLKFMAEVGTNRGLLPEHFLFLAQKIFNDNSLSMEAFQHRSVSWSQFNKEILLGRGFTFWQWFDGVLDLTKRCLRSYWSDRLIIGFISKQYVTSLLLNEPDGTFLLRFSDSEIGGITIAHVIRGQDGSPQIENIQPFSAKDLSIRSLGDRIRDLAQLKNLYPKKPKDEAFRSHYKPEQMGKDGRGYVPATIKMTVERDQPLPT
Method in brief: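 Competitive displacement of a fluorescent phosphotyrosine peptide (2 nM) from recombinant STAT6 W123-T658 (250 nM), 45 min at room temperature in 10 mM HEPES pH 7.4, 50 mM NaCl, 2 mM DTT. mP fitted against log compound for IC50, grouped A (≤300 nM) to D (>30 μM).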

T1 sequence (P40763 127-722, species assumed): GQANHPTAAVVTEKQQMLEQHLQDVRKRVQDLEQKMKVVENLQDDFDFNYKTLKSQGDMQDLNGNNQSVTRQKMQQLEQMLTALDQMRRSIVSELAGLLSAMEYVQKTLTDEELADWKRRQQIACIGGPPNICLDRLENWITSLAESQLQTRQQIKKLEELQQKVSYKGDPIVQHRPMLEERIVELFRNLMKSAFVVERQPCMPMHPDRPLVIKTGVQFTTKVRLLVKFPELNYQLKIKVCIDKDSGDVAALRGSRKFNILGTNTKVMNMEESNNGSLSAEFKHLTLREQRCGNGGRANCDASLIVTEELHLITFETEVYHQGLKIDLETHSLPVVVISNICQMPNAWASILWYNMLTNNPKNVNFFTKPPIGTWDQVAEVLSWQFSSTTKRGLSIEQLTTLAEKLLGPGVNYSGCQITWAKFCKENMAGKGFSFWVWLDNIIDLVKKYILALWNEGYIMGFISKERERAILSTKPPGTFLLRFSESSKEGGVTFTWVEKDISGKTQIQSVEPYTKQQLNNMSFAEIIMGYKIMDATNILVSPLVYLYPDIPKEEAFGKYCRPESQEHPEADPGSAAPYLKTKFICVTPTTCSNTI

| IC50 [1] [µM] | IC50 [2] [µM] | Structure (SMILES) |
| --- | --- | --- |
| < 0.1 | 0.3 to 3 | O=C(N[C@H]1C[C@H]2C[C@H]2C[C@H]2CC[C@@H](C(=O)NCc3c[nH]c4ncccc34)N2C1=O)c1cc2cc(C(F)(F)P(=O)(O)O)ccc2s1 [Compound 124, ((2-(((3S,6S,7aR,8aS,9aR)-3-(((1H-pyrrolo[2,3-b]pyridin-3-yl)methyl)carbamoyl)-5-oxodecahydro-1H-cyclopropa[d]pyrrolo[1,2-a]azocin-6-yl)carbamoyl)benzo[b]thiophen-5-yl)difluoromethyl)phosphonic acid] |
| 0.1 to 1 | 3 to 30 | O=C(N[C@H]1C[C@H]2C[C@H]2C[C@H]2CC[C@@H](C(=O)N3CCN(C4CCOCC4)CC3)N2C1=O)c1cc2cc(C(F)(F)P(=O)(O)O)ccc2s1 [Compound 125, (difluoro(2-(((3S,6S,7aR,8aS,9aR)-5-ox0-3-(4-(tetrahydro-2H-pyran-4-yl)piperazine-1-carbonyl)decahydro-1H-cyclopropa[d]pyrrolo[1,2-a]azocin-6-yl)carbamoyl)benzo[b]thiophen-5-yl)methyl)phosphonic acid] |
| < 0.1 | 0.3 to 3 | CC(=O)N1C[C@H](NC(=O)[C@@H]2CC[C@@H]3C[C@@H]4C[C@@H]4C[C@H](NC(=O)c4cc5cc(C(F)(F)P(=O)(O)O)ccc5s4)C(=O)N32)[C@@H](F)C1 [Compound 126, ((2-(((3S,6S,7aR,8aS,9aR)-3-(((3S,4S)-1-acetyl-4-fluoropyrrolidin-3-yl)carbamoyl)-5-oxodecahydro-1H-cyclopropa[d]pyrrolo[1,2-a]azocin-6-yl)carbamoyl)benzo[b]thiophen-5-yl)difluoromethyl)phosphonic acid] |
| < 0.1 | 3 to 30 | CC(=O)N1C[C@@H](F)[C@@H](NC(=O)[C@@H]2CC[C@@H]3C[C@@H]4C[C@@H]4C[C@H](NC(=O)c4cc5cc(C(F)(F)P(=O)(O)O)ccc5s4)C(=O)N32)C1 [Compound 127, ((2-(((3S,6S,7aR,8aS,9aR)-3-(((3S,4R)-1-acetyl-4-fluoropyrrolidin-3-yl)carbamoyl)-5-oxodecahydro-1H-cyclopropa[d]pyrrolo[1,2-a]azocin-6-yl)carbamoyl)benzo[b]thiophen-5-yl)difluoromethyl)phosphonic acid] |
| < 0.1 | 0.3 to 3 | O=C(N[C@H]1C[C@H]2C[C@H]2C[C@H]2CC[C@@H](C(=O)N[C@H]3CN(c4cccnc4)C[C@@H]3F)N2C1=O)c1cc2cc(C(F)(F)P(=O)(O)O)ccc2s1 [Compound 128, (difluoro(2-(((3S,6S,7aR,8aS,9aR)-3-(((3S,4S)-4-fluoro-1-(pyridin-3-yl)pyrrolidin-3-yl)carbamoyl)-5-oxodecahydro-1H-cyclopropa[d]pyrrolo[1,2-a]azocin-6-yl)carbamoyl)benzo[b]thiophen-5-yl)methyl)phosphonic acid] |
| < 0.1 | 3 to 30 | O=C(N[C@H]1C[C@H]2C[C@H]2C[C@H]2CC[C@@H](C(=O)N[C@H]3CN(c4cccnc4)C[C@H]3F)N2C1=O)c1cc2cc(C(F)(F)P(=O)(O)O)ccc2s1 [Compound 129, (difluoro(2-(((3S,6S,7aR,8aS,9aR)-3-(((3S,4R)-4-fluoro-1-(pyridin-3-yl)pyrrolidin-3-yl)carbamoyl)-5-oxodecahydro-1H-cyclopropa[d]pyrrolo[1,2-a]azocin-6-yl)carbamoyl)benzo[b]thiophen-5-yl)methyl)phosphonic acid] |
| < 0.1 | 3 to 30 | C[C@@H]1CN(C(=O)C2CN(C(=O)[C@@H]3CC[C@@H]4C[C@H]5C[C@H]5C[C@H](NC(=O)c5cc6cc(C(F)(F)P(=O)(O)O)ccc6s5)C(=O)N43)C2)CCO1 [Example 1, (difluoro(2-(((3S,6S,7aS,8aR,9aR)-3-(3-((R)-2-methylmorpholine-4-carbonyl)azetidine-1-carbonyl)-5-oxodecahydro-1H-cyclopropa[d]pyrrolo[1,2-a]azocin-6-yl)carbamoyl)benzo[b]thiophen-5-yl)methyl)phosphonic acid] |
| 0.1 to 1 | 0.3 to 3 | O=C(N[C@H]1C[C@@H]2C[C@@H]2C[C@H]2CC[C@@H](C(=O)Nc3ccc(-c4ccccc4)cc3)N2C1=O)c1cc2cc(C(F)(F)P(=O)(O)O)ccc2s1 [Example 3, ((2-(((3S,6S,7aS,8aR,9aR)-3-([1,1′-biphenyl]-4-ylcarbamoyl)-5-oxodecahydro-1H-cyclopropa[d]pyrrolo[1,2-a]azocin-6-yl)carbamoyl)benzo[b]thiophen-5-yl)difluoromethyl)phosphonic acid] |
| 0.1 to 1 | 0.3 to 3 | O=C(N[C@H]1C[C@@H]2C[C@@H]2C[C@H]2CC[C@@H](C(=O)N3CCN(C(=O)[C@@H]4CCOC4)CC3)N2C1=O)c1cc2cc(C(F)(F)P(=O)(O)O)ccc2s1 [Example 7, (difluoro(2-(((3S,6S,7aS,8aR,9aR)-5-oxo-3-(4-((R)-tetrahydrofuran-3-carbonyl)piperazine-1-carbonyl)decahydro-1H-cyclopropa[d]pyrrolo[1,2-a]azocin-6-yl)carbamoyl)benzo[b]thiophen-5-yl)methyl)phosphonic acid] |
| 0.1 to 1 | 3 to 30 | O=C(N[C@H]1C[C@@H]2C[C@@H]2C[C@H]2CC[C@@H](C(=O)N3CCN(C(=O)[C@H]4CCOC4)CC3)N2C1=O)c1cc2cc(C(F)(F)P(=O)(O)O)ccc2s1 [Example 8, (Difluoro(2-(((3S,6S,7aS,8aR,9aR)-5-oxo-3-(4-((S)-tetrahydrofuran-3-carbonyl)piperazine-1-carbonyl)decahydro-1H-cyclopropa[d]pyrrolo[1,2-a]azocin-6-yl)carbamoyl)benzo[b]thiophen-5-yl)methyl)phosphonic acid] |
| 0.1 to 1 | 0.3 to 3 | CC(=O)N1C[C@H](NC(=O)[C@@H]2CC[C@@H]3C[C@H]4C[C@H]4C[C@H](NC(=O)c4cc5cc(C(F)(F)P(=O)(O)O)ccc5s4)C(=O)N32)[C@@H](O)C1 [Example 9, ((2-(((3S,6S,7aS,8aR,9aR)-3-(((3S,4S)-1-acetyl-4-hydroxypyrrolidin-3-yl)carbamoyl)-5-oxodecahydro-1H-cyclopropa[d]pyrrolo[1,2-a]azocin-6-yl)carbamoyl)benzo[b]thiophen-5-yl)difluoromethyl)phosphonic acid] |
| < 0.1 | 0.3 to 3 | C[C@@]12C[C@H]3CC[C@@H](C(=O)N4CC(c5cccnc5)C4)N3C(=O)[C@@H](NC(=O)c3cc4cc(C(F)(F)P(=O)(O)O)ccc4s3)C[C@@H]1C2 [Example 230, (difluoro(2-(((3S,6S,7aS,8aR,9aR)-8a-methyl-5-oxo-3-(3-(pyridin-3-yl)azetidine-1-carbonyl)decahydro-1H-cyclopropa[d]pyrrolo[1,2-a]azocin-6-yl)carbamoyl)benzo[b]thiophen-5-yl)methyl)phosphonic acid] |
| < 0.1 | 3 to 30 | C[C@]12CC[C@H](NC(=O)c3cc4cc(C(F)(F)P(=O)(O)O)ccc4s3)C(=O)N3[C@H](CC[C@H]3C(=O)N3CC(c4cccnc4)C3)[C@H]1C2 [Example 234, (difluoro(2-(((3S,6S,8aR,9aS,9bR)-8a-methyl-5-oxo-3-(3-(pyridin-3-yl)azetidine-1-carbonyl)decahydro-1H-cyclopropa[c]pyrrolo[1,2-a]azocin-6-yl)carbamoyl)benzo[b]thiophen-5-yl)methyl)phosphonic acid] |
